The record followed here is ChEMBL document CHEMBL1130603, “Studies on the C-terminal of hexapeptide inhibitors of the hepatitis C virus serine protease” (Bioorg Med Chem Lett, 1998).

The nature of assay [1]: Compound was tested for inhibition of bovine pancreatic alpha-chymotrypsin. More on the design: species or system Bos taurus.
Assay [2] has as its target Pancreatic elastase (Sus scrofa, UniProt P08419+P00772). Briefly: Compound was tested for inhibition of porcine pancreatic elastase (PPE). The format is protein assay.
For assay [3], the target named is T1, Hepatitis C virus serine protease, NS3/NS4A (Hepatitis C virus, UniProt D2K2A8+A3EZI9). The assay can be described thus: (§1) Inhibition of hepatitis C virus (HCV) NS3 protease. The format is protein-complex assay, Hepacivirus hominis.
Assay [4] addresses Cathepsin B (Homo sapiens, UniProt P07858). Briefly: Compound was tested for inhibition of human liver Cathepsin B.
The target in assay [5] is T2, Neutrophil elastase (Homo sapiens, UniProt P08246).
T2 sequence (P08246 whole entry): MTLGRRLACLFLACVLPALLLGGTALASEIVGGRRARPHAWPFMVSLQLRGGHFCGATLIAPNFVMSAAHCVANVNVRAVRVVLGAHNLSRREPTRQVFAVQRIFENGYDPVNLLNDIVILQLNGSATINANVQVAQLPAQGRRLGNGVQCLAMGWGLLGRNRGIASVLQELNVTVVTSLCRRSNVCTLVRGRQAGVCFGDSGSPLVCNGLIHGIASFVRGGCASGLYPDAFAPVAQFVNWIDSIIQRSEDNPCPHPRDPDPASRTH
Briefly: Compound was tested for inhibition of human leucocyte elastase (HLE).

The target of assay [6] is Hepatitis C virus serine protease, NS3/NS4A (Hepatitis C virus, UniProt A3EZI9+D2K2A8). The assay is described as §1. The format is protein-complex assay, Hepacivirus hominis.
Assay [7] concerns the target T1, Hepatitis C virus serine protease, NS3/NS4A. The assay can be described thus: Compound was tested for competitive inhibition of hepatitis C virus (HCV) serine protease. In kind it is protein-complex assay, Hepacivirus hominis.

Square brackets hold non-standard residues; d marks the D form. Peptide text beside a SMILES is read from it. * marks the point of attachment. Nle = CCCC[C@H](N)C(=O)O; Nva = CCC[C@H](N)C(=O)O; Abu = CC[C@H](N)C(=O)O; CF3 = FC(F)(F)*

By IC50 is commonly meant the point on the concentration scale where inhibition reaches its midpoint. A low value points to inhibition by little substance. By Ki is commonly meant the equilibrium dissociation constant of an inhibitor or competing ligand from its target. Lower therefore signals higher affinity.

Regarding `CCC[C@@H](NC(=O)[C@@H]1CCCN1C(=O)[C@@H](NC(=O)[C@@H](NC(=O)[C@@H](CC(=O)O)NC(=O)[C@H](CC(=O)O)NC(C)=O)[C@@H](C)CC)C(C)C)C(=O)OCc1ccccc1`, the IC50 in assay [1] is 29 µM; in assay [2], over 1000 µM; in assay [3], 9.3 µM; in assay [4], over 1000 µM; in assay [5], over 1000 µM.
Consider `CCC[C@@H](NC(=O)[C@@H]1CCCN1C(=O)[C@@H](NC(=O)[C@@H](NC(=O)[C@@H](CC(=O)O)NC(=O)[C@H](CC(=O)O)NC(C)=O)[C@@H](C)CC)C(C)C)C(=O)NC`, for which 160 µM corresponded to half-maximal inhibition in assay [3] (IC50).
`CCC[C@@H](NC(=O)[C@@H]1CCCN1C(=O)[C@@H](NC(=O)[C@@H](NC(=O)[C@@H](CC(=O)O)NC(=O)[C@H](CC(=O)O)NC(C)=O)[C@@H](C)CC)C(C)C)C(N)=O` had a half-inhibitory concentration (IC50) in assay [3] of over 1000 µM.
Same read-out and setting: the result for `CCC[C@@H](NC(=O)[C@@H]1CCCN1C(=O)[C@@H](NC(=O)[C@@H](NC(=O)[C@@H](CC(=O)O)NC(=O)[C@H](CC(=O)O)NC(C)=O)[C@@H](C)CC)C(C)C)C(=O)OC` reads 17 µM.
As for `CCC[C@H](CO)NC(=O)[C@@H]1CCCN1C(=O)[C@@H](NC(=O)[C@@H](NC(=O)[C@@H](CC(=O)O)NC(=O)[C@H](CC(=O)O)NC(C)=O)[C@@H](C)CC)C(C)C`, 280 µM corresponded to half-maximal inhibition in assay [6] (IC50).
In turn, `CC[C@H](C)[C@H](NC(=O)[C@@H]1CCCN1C(=O)[C@@H](NC(=O)[C@@H](NC(=O)[C@H](CC(=O)O)NC(=O)[C@H](CC(=O)O)NC(C)=O)[C@@H](C)CC)C(C)C)C(=O)O` yielded a 50% inhibitory concentration (IC50) in assay [6] of 780 µM.
As for `CCC[C@H](NC(=O)[C@@H]1CCCN1C(=O)[C@@H](NC(=O)[C@@H](NC(=O)[C@H](CC(=O)O)NC(=O)[C@H](CC(=O)O)NC(C)=O)[C@@H](C)CC)C(C)C)C(=O)C(=O)NCc1ccccc1`, the 50% inhibitory concentration (IC50) in assay [1] is 10 µM; in assay [2], under 0.06 µM; in assay [6] it was 2 µM; in assay [4], 100 µM; in assay [5], 0.03 µM.
In the case of `CCC[C@H](NC(=O)[C@@H]1CCCN1C(=O)[C@@H](NC(=O)[C@@H](NC(=O)[C@@H](CC(=O)O)NC(=O)[C@H](CC(=O)O)NC(C)=O)[C@@H](C)CC)C(C)C)C(=O)C(=O)NCc1ccccc1`, the IC50 was 30 µM in assay [1]; under 0.06 µM in assay [2]; 0.64 µM in assay [6]; 172 µM in assay [4]; 0.1 µM in assay [5].
In assay [6], `CC[C@@H](C)[C@H](NC(=O)[C@@H]1CCCN1C(=O)[C@@H](NC(=O)[C@@H](NC(=O)[C@H](CC(=O)O)NC(=O)[C@H](CC(=O)O)NC(C)=O)[C@@H](C)CC)C(C)C)C(=O)O` showed an IC50 of 190 µM.
For `CCC[C@@H](NC(=O)[C@@H]1CCCN1C(=O)[C@@H](NC(=O)[C@@H](NC(=O)[C@@H](CC(=O)O)NC(=O)[C@H](CC(=O)O)NC(C)=O)[C@@H](C)CC)C(C)C)C(=O)NCc1ccccc1`, the IC50 in assay [1] is over 1000 µM; in assay [2], 206 µM; in assay [3] it was 52 µM; in assay [4] it was over 1000 µM; in assay [5], 120 µM.
Compound `CCC[C@H](NC(=O)[C@@H]1CCCN1C(=O)[C@@H](NC(=O)[C@@H](NC(=O)[C@H](CC(=O)O)NC(=O)[C@H](CC(=O)O)NC(C)=O)[C@@H](C)CC)C(C)C)C(=O)C(F)(F)C(F)(F)F` registered an IC50 in assay [6] of 79 µM.
Consider `CCC[C@H](NC(=O)[C@@H]1CCCN1C(=O)[C@@H](NC(=O)[C@@H](NC(=O)[C@@H](CC(=O)O)NC(=O)[C@H](CC(=O)O)NC(C)=O)[C@@H](C)CC)C(C)C)C(=O)C(F)(F)C(F)(F)F`, for which the 50% inhibitory concentration (IC50) is 18 µM in assay [1]; under 0.06 µM in assay [2]; 12 µM in assay [6]; 416 µM in assay [4]; 0.06 µM in assay [5].
The corresponding values for `CCC[C@@H](C=O)NC(=O)[C@@H]1CCCN1C(=O)[C@@H](NC(=O)[C@@H](NC(=O)[C@@H](CC(=O)O)NC(=O)[C@H](CC(=O)O)NC(C)=O)[C@@H](C)CC)C(C)C` are over 900 µM, 2.2 µM, 1.1 µM, 9.5 µM and 6.7 µM.
In assay [6], `CCC[C@@H](C=O)NC(=O)[C@@H]1CCCN1C(=O)[C@@H](NC(=O)[C@@H](NC(=O)[C@H](CC(=O)O)NC(=O)[C@H](CC(=O)O)NC(C)=O)[C@@H](C)CC)C(C)C` displayed a half-inhibitory concentration (IC50) of 10 µM.
The same measure, in the same setting: the result for `CC[C@H](C)[C@H](NC(=O)[C@H](CC(=O)O)NC(=O)[C@H](CC(=O)O)NC(C)=O)C(=O)N[C@H](C(=O)N1CCC[C@H]1C(=O)N[C@@H](CS)C(=O)O)C(C)C` reads 28 µM.
`CC[C@H](C)[C@H](NC(=O)[C@@H](CC(=O)O)NC(=O)[C@H](CC(=O)O)NC(C)=O)C(=O)N[C@H](C(=O)N1CCC[C@@H]1C(=O)N[C@@H](CS)C(=O)O)C(C)C`: the inhibition constant Ki in assay [7] was 0.6 µM.
In assay [6], `CC[C@H](NC(=O)[C@@H]1CCCN1C(=O)[C@@H](NC(=O)[C@@H](NC(=O)[C@H](CC(=O)O)NC(=O)[C@H](CC(=O)O)NC(C)=O)[C@@H](C)CC)C(C)C)C(=O)O` (Ac-DDIVP[Abu]-OH) gave an IC50 of 250 µM.
Compound `CCCC[C@H](NC(=O)[C@@H]1CCCN1C(=O)[C@@H](NC(=O)[C@@H](NC(=O)[C@H](CC(=O)O)NC(=O)[C@H](CC(=O)O)NC(C)=O)[C@@H](C)CC)C(C)C)C(=O)O` (Ac-DDIVP[Nle]-OH) gave an IC50 in assay [6] of 500 µM.
The same measure, in the same setting: the result for `CCC[C@H](NC(=O)[C@@H]1CCCN1C(=O)[C@@H](NC(=O)[C@@H](NC(=O)[C@H](CC(=O)O)NC(=O)[C@H](CC(=O)O)NC(C)=O)[C@@H](C)CC)C(C)C)C(=O)C(F)(F)F` (Ac-DDIVP[Nva]-CF3) reads 160 µM; that for `CCC[C@H](NC(=O)[C@@H]1CCCN1C(=O)[C@@H](NC(=O)[C@@H](NC(=O)[C@H](CC(=O)O)NC(=O)[C@H](CC(=O)O)NC(C)=O)[C@@H](C)CC)C(C)C)C(=O)O` (Ac-DDIVP[Nva]-OH), 150 µM.
On to `CCC[C@H](NC(=O)[C@@H]1CCCN1C(=O)[C@@H](NC(=O)[C@@H](NC(=O)[C@@H](CC(=O)O)NC(=O)[C@H](CC(=O)O)NC(C)=O)[C@@H](C)CC)C(C)C)C(=O)C(F)(F)F` (Ac-D[dD]IVP[Nva]-CF3), for which the IC50 was 4.5 µM in assay [1]; 0.19 µM in assay [2]; 22 µM in assay [6]; over 900 µM in assay [4]; under 0.06 µM in assay [5].
In the same order, the values of `CCC[C@H](NC(=O)[C@@H]1CCCN1C(=O)[C@@H](NC(=O)[C@@H](NC(=O)[C@@H](CC(=O)O)NC(=O)[C@H](CC(=O)O)NC(C)=O)[C@@H](C)CC)C(C)C)C(=O)O` (Ac-D[dD]IVP[Nva]-OH) are over 1000 µM, over 1000 µM, 17 µM, over 1000 µM and over 1000 µM.
As for Ac-DDIVPA-OH, the IC50 in assay [6] worked out at 750 µM.
Still for that read-out and setting: the result for Ac-DDIVPL-OH reads 800 µM.
